Data: US4312867A, “Antibacterial compounds, processes for their preparation and compositions containing them” (Beecham Group Limited, priority 1979, dated 1982)

Assay: Mean serum concentrations in neonatal piglets after intramuscular or oral administration
Format: in vivo
Details: pig, 50 mg/kg
Procedure: (f) Mean serum concentrations in neonatal piglets after intramuscular or oral administration at 50 mg/kg of 6-sulphamoylhexyl monate A
Blood levels were assessed in neonatal piglets (2 to 4 animals per group and mean bodyweights about 2 kg). The dose was 50 mg/kg (dose solution=25 mg/ml in 25% ethanol). Doses were given by intramuscular injection and orally by stomach tube. Piglets were bled at intervals up to 6 and at 24 hours, and serum assayed microbiologically (B. subtilis ATCC 6633).

In the case of `C/C(=C\C(=O)OCCCCCCS(N)(=O)=O)CC1OCC(CC2OC2C(C)C(C)O)C(O)C1O` (stereo not shown) [Example 2, 6-Sulphamoylhexyl monate A], the concentration at 10 min (im) is reported as 31400 ng/mL, the concentration at 20 min (im) is reported as 31200 ng/mL and the concentration at 40 min (im) is reported as 23700 ng/mL. It also gave a concentration at 1 h (im) of 17300 ng/mL, a concentration at 2 h (im) of 9200 ng/mL and a concentration at 3 h (im) of 3200 ng/mL. The concentration at 4 h (im) was 1020 ng/mL, the concentration at 5 h (im) was under 600 ng/mL and the concentration at 10 min (po) was 5900 ng/mL. The concentration at 20 min (po) was 8300 ng/mL, the concentration at 40 min (po) was 8600 ng/mL and the concentration at 1 h (po) was 5900 ng/mL. It also gave a concentration at 2 h (po) of 1800 ng/mL, a concentration at 3 h (po) of 1500 ng/mL and a concentration at 4 h (po) of 740 ng/mL. It also gave a concentration at 5 h (po) of under 510 ng/mL.
